Test results published in patent US20080188483A1, “Compounds and Compositions as Protein Kinase Inhibitors” (IRM LLC, priority 2006, published 2008).

Tests used:
[1] = test system: b-Raf (A375 cells, V599E mutation); experiment: b-Raf cellular assay (phosphorylation of MEK in A375 cells); format: cell-based; details: Homo sapiens, A-375, phospho-MEK
Method: Compounds of the invention are tested in A375 cells for their ability to inhibit phosphorylation of MEK. A375 cell line (ATCC) is derived from a human melanoma patient and it has a V599E mutation on the B-Raf gene. The levels of phosphorylated MEK are elevated due to the mutation of B-Raf. Sub-confluent to confluent A375 cells are incubated with compounds for 2 hours at 37° C. in serum free medium. Cells are then washed once with cold PBS and lysed with the lysis buffer containing 1% Triton X100. After centrifugation, the supernatants are subjected to SDS-PAGE, and then transferred to nitrocellulose membranes. The membranes are then subjected to western blotting with anti-phospho-MEK antibody (ser217/221) (Cell Signaling). The amount of phosphorylated MEK is monitored by the density of phospho-MEK bands on the nitrocellulose membranes.

[2] = molecular target: T1, Abl (Homo sapiens, UniProt P00519); experiment: Upstate KinaseProfiler radio-enzymatic filter binding assay; format: biochemical; details: at a concentration of 10 μM; read-out: percentage inhibition of Abl
T1 construct: purchased Upstate
Method: (§1) Compounds of the invention are assessed for their ability to inhibit individual members of a panel of kinases (a partial, non-limiting list of kinases includes: Abl, BMX, BTK, CHK2, c-RAF, CSK, c-SRC, Fes, FGFR3, Flt3, IKKα, IKKβ, JNK2α2, Lck, Met, MKK4, MKK6, MST2, NEK2, p70S6K, PDGFRβ, PKA, PKBα, PKD2, Rsk1, SAPK2α, SAPK2β, SAPK3, SGK, Tie2 and/or TrkB. The compounds are tested in duplicates at a final concentration of 10 μM following this generic protocol. Note that the kinase buffer composition and the substrates vary for the different kinases included in the “Upstate KinaseProfiler™” panel. Kinase buffer (2.5 μL, 10×—containing MnCl2 when required), active kinase (0.001-0.01 Units; 2.5 μL), specific or Poly(Glu4-Tyr) peptide (5-500 μM or 0.01 mg/ml) in kinase buffer and kinase buffer (50 μM; 5 μL) are mixed in an eppendorf on ice. A Mg/ATP mix (10 μL; 67.5 (or 33.75) mM MgCl2, 450 (or 225) μM ATP and 1 μCi/μl [γ-^32P]-ATP (3000 Ci/mmol)) is added and the reaction is incubated at about 30° C. for about 10 minutes. The reaction mixture is spotted (20 μL) onto a 2 cm×2 cm P81 (phosphocellulose, for positively charged peptide substrates) or Whatman No. 1 (for Poly (Glu4-Tyr) peptide substrate) paper square. The assay squares are washed 4 times, for 5 minutes each, with 0.75% phosphoric acid and washed once with acetone for 5 minutes. The assay squares are transferred to a scintillation vial, 5 ml scintillation cocktail are added and ^32P incorporation (cpm) to the peptide substrate is quantified with a Beckman scintillation counter. Percentage inhibition is calculated for each reaction.

[3] = molecular target: T2, BMX (Homo sapiens, UniProt P51813); experiment: as above; format: biochemical; details: at a concentration of 10 μM; read-out: percentage inhibition of BMX
T2 construct: purchased Upstate
Method: as §1

[4] = molecular target: T3, BTK (Homo sapiens, UniProt Q06187); experiment: as above; format: biochemical; details: at a concentration of 10 μM; read-out: percentage inhibition of BTK
T3 construct: purchased Upstate
T3 sequence (Q06187 whole entry): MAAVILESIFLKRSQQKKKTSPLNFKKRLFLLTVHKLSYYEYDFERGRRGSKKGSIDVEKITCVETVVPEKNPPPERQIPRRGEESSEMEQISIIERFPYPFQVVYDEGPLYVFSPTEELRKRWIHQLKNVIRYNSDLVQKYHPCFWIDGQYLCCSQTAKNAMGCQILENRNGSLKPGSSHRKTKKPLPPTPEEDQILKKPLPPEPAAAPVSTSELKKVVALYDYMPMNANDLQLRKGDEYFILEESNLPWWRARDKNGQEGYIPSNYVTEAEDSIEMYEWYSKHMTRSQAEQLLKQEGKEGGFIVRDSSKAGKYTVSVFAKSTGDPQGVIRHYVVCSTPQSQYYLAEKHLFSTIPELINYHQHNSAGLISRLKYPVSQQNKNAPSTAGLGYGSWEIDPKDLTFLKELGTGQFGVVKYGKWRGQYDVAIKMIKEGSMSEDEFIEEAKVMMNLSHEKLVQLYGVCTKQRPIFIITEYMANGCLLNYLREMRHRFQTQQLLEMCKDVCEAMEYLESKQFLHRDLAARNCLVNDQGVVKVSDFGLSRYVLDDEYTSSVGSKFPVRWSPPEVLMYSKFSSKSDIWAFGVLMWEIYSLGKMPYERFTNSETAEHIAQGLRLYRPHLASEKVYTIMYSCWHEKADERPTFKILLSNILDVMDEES
Method: as §1

[5] = test system: Bcr-Abl; experiment: as above; format: biochemical; details: at a concentration of 10 μM
Method: as §1

[6] = molecular target: T4, CSK (Homo sapiens, UniProt P41240); experiment: as above; format: biochemical; details: at a concentration of 10 μM; read-out: percentage inhibition of CSK
T4 construct: purchased Upstate
T4 sequence (P41240 whole entry): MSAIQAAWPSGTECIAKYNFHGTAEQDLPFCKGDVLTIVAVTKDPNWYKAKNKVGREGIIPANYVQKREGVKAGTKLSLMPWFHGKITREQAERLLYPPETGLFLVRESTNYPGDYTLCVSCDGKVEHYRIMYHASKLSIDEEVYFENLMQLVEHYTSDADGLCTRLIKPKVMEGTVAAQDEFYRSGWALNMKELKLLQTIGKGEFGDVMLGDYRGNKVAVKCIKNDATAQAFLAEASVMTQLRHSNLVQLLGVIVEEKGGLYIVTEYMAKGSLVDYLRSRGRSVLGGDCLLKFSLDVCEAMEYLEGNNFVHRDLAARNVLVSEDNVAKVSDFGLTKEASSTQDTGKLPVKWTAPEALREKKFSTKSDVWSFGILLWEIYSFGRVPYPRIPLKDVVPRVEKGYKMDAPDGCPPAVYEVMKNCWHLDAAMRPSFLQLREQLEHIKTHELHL
Method: as §1

[7] = molecular target: T5, FGFR3 (Homo sapiens, UniProt P22607); experiment: as above; format: biochemical; details: at a concentration of 10 μM; read-out: percentage inhibition of FGFR3
T5 construct: purchased Upstate
Method: as §1

[8] = molecular target: T6, Fes (Homo sapiens, UniProt P07332); experiment: as above; format: biochemical; details: at a concentration of 10 μM; read-out: percentage inhibition of Fes
T6 construct: purchased Upstate
T6 sequence (P07332 whole entry): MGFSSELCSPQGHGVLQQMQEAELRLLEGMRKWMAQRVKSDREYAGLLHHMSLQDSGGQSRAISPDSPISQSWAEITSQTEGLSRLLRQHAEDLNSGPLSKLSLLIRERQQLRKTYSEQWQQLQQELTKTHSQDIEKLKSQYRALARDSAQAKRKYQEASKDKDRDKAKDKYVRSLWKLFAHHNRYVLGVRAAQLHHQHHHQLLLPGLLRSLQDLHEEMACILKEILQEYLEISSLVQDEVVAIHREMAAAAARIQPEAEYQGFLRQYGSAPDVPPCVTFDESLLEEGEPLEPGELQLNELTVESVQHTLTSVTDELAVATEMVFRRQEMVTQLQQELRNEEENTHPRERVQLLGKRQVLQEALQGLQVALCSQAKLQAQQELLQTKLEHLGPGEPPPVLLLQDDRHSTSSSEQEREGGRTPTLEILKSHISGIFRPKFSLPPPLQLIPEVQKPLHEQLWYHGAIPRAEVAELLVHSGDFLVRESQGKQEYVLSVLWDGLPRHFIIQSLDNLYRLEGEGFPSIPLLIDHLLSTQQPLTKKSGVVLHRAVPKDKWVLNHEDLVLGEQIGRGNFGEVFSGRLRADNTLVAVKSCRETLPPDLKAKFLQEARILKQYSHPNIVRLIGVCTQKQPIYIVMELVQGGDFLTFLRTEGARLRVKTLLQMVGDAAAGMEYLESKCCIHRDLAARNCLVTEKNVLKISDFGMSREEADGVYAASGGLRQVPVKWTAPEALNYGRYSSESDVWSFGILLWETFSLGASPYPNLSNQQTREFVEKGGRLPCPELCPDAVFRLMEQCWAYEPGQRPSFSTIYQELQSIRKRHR
Method: as §1

[9] = molecular target: T7, Lck (Homo sapiens, UniProt P06239); experiment: as above; format: biochemical; details: at a concentration of 10 μM; read-out: percentage inhibition of Lck
T7 construct: purchased Upstate
Method: as §1

[10] = molecular target: T8, MKK6 (Homo sapiens, UniProt P52564); experiment: as above; format: biochemical; details: at a concentration of 10 μM; read-out: percentage inhibition of MKK6
T8 construct: purchased Upstate
Method: as §1

[11] = molecular target: T9, PDGFRβ (Homo sapiens, UniProt P09619); experiment: as above; format: biochemical; details: at a concentration of 10 μM; read-out: percentage inhibition of PDGFRβ
T9 construct: purchased Upstate
T9 sequence (P09619 33-1106): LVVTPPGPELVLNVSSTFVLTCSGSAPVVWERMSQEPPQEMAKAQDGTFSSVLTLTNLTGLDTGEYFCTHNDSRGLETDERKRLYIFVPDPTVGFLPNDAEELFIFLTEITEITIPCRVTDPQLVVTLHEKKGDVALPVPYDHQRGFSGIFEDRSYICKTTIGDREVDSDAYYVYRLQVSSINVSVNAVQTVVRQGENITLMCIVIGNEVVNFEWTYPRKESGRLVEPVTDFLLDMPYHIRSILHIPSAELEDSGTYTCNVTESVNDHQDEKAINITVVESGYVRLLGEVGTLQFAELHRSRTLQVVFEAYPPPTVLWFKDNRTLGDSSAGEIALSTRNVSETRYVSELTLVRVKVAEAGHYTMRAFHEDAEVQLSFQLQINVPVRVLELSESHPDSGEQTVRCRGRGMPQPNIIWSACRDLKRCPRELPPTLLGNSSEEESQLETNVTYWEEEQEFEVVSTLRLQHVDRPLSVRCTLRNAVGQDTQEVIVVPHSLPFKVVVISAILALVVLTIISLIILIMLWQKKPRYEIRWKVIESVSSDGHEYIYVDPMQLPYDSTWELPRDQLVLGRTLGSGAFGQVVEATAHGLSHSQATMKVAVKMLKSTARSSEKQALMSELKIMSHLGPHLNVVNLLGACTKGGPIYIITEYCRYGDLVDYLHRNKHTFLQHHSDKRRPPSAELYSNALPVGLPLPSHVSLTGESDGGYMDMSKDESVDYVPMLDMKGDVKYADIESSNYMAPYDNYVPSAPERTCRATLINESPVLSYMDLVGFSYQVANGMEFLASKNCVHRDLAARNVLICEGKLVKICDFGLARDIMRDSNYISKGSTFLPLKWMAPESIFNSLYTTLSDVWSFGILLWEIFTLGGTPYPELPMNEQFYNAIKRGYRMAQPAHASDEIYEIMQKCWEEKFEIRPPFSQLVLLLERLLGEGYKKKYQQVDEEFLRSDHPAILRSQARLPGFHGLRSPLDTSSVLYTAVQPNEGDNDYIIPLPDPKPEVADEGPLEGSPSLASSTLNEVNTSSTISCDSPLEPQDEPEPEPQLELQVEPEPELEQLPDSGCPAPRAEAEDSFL
Method: as §1

[12] = molecular target: T10, Rsk1 (Homo sapiens, UniProt Q15418); experiment: as above; format: biochemical; details: at a concentration of 10 μM; read-out: percentage inhibition of Rsk1
T10 construct: purchased Upstate
T10 sequence (Q15418 whole entry): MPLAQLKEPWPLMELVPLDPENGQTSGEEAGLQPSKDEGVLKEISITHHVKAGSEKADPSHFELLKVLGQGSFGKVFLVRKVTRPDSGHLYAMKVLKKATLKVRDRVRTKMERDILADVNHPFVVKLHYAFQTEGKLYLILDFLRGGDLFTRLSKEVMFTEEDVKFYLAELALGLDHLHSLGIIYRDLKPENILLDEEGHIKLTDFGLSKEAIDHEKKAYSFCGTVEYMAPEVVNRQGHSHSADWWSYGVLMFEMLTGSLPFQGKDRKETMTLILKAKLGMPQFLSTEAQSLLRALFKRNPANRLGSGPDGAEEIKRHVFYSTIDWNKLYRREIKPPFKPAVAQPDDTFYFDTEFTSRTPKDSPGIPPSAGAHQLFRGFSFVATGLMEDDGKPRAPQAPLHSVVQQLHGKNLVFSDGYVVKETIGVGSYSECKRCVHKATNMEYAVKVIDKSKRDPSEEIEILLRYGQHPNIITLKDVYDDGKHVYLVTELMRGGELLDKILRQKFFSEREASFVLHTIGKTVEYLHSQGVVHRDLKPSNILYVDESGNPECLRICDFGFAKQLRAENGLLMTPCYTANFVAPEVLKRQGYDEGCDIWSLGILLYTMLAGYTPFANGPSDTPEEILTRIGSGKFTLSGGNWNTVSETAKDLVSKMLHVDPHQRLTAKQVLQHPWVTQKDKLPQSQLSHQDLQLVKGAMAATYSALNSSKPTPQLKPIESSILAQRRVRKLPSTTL
Method: as §1

[13] = molecular target: T11, SAPK2α (Homo sapiens, UniProt Q16539); experiment: as above; format: biochemical; details: at a concentration of 10 μM; read-out: percentage inhibition of SAPK2α
T11 construct: purchased Upstate
Method: as §1

[14] = molecular target: T12, Tie2 (Homo sapiens, UniProt Q02763); experiment: as above; format: biochemical; details: at a concentration of 10 μM; read-out: percentage inhibition of Tie2
T12 construct: purchased Upstate
T12 sequence (Q02763 23-1124): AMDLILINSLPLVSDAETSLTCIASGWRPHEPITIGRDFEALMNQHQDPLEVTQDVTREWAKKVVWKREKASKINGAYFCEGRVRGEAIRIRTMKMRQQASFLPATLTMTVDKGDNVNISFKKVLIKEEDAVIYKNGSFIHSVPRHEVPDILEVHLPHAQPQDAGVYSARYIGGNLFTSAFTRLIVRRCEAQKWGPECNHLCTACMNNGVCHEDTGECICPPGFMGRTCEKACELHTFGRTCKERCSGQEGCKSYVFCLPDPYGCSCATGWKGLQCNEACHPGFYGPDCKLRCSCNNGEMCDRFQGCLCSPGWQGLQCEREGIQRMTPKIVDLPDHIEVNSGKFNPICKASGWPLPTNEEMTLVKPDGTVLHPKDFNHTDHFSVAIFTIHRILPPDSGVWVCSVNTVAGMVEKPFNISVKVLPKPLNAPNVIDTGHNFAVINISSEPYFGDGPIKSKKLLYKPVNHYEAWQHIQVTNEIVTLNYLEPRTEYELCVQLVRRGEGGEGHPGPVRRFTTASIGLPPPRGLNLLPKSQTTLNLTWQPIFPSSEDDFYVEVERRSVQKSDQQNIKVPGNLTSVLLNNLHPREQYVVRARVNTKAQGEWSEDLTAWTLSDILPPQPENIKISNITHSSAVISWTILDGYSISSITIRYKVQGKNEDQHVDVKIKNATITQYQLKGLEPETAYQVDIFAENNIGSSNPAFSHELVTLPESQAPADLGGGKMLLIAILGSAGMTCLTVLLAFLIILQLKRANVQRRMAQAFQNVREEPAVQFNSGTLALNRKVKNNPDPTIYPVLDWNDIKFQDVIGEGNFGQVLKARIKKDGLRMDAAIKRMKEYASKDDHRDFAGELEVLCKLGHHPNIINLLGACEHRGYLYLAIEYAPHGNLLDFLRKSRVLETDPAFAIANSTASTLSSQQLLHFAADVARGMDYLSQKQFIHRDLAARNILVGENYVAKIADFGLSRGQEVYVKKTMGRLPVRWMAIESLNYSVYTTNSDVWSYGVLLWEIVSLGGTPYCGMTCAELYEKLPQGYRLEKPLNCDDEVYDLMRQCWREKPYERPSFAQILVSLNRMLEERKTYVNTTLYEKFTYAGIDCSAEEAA
Method: as §1

[15] = molecular target: T13, TrkB (Homo sapiens, UniProt Q16620); experiment: as above; format: biochemical; details: at a concentration of 10 μM; read-out: percentage inhibition of TrkB
T13 construct: purchased Upstate
Method: as §1

[16] = molecular target: T14, c-RAF (Homo sapiens, UniProt P04049); experiment: as above; format: biochemical; details: at a concentration of 10 μM; read-out: percentage inhibition of c-RAF
T14 construct: purchased Upstate
Method: as §1

[17] = molecular target: T15, c-SRC (Homo sapiens, UniProt P12931); experiment: as above; format: biochemical; details: at a concentration of 10 μM; read-out: percentage inhibition of c-SRC
T15 construct: purchased Upstate
Method: as §1

[18] = molecular target: T16, p70S6K (Homo sapiens, UniProt P23443); experiment: as above; format: biochemical; details: at a concentration of 10 μM; read-out: percentage inhibition of p70S6K
T16 construct: purchased Upstate
Method: as §1

Compound: Cc1cn(-c2cc(C(=O)Nc3ccc(C)c(Nc4nccn4-c4ncnc5[nH]ccc45)c3)cc(C(F)(F)F)c2)cn1 [Example 2, 3-(4-methyl-imidazol-1-yl)-N-{4-methyl-3-[1-(7H-pyrrolo[2,3-d]pyrimidin-4-yl)-1H-imidazol-2-ylamino]-phenyl}-5-trifluoromethyl-benzamide]
- IC50 [1]: 32 nM
- inhibition at 10 µM [2]: 99%
- inhibition at 10 µM [3]: 99%
- inhibition at 10 µM [4]: 99%
- percentage inhibition of Bcr-Abl [5]: 99%
- inhibition at 10 µM [6]: 97%
- inhibition at 10 µM [7]: 89%
- inhibition at 10 µM [8]: 71%
- inhibition at 10 µM [9]: 99%
- inhibition at 10 µM [10]: 99%
- inhibition at 10 µM [11]: 83%
- inhibition at 10 µM [12]: 88%
- inhibition at 10 µM [13]: 97%
- inhibition at 10 µM [14]: 99%
- inhibition at 10 µM [15]: 100%
- inhibition at 10 µM [16]: 98%
- inhibition at 10 µM [17]: 100%
- inhibition at 10 µM [18]: 86%
